# Patent US20180168151A1, “COMPOSITION AND SYSTEM FOR ATTRACTING LEPIDOPTEROUS INSECTS” (The New Zealand Institute for Plant and Food Research …, priority 2015, published 2018)
# Assays:
# LBAM = assay: Example 1B: individual compounds as attractants, baited traps; format: in vivo, Epiphyas postvittana; details: tested individually, 10 mg (acetic acid 0.3 mL); no significant differences among treatments
# Protocol: (§1) This experiment was conducted from 28 Nov. to 12 Dec. 2013 for LBAM and 3-10 Jun. 2015 for ESBM and OBLR to investigate the biological activity of the individual volatile organic compounds. Lures of benzyl alcohol, benzyl nitrile, indole, 2-phenyethanol, (E)-nerolidol, and 0.3 mL acetic acid were made by dispensing 10 mg of each compound on a Boomerang regular cellulose acetate filter (7.5 mm diameter×10 mm, Moss Packaging Co. Ltd., Wellington, New Zealand) inside a permeable polyethylene bag (100 μm wall thickness, 20 mm×20 mm, Masterton, New Zealand) that was then heat-sealed. A trap with a lure without chemical was used as negative control.
# ESBM [1] = assay: Example 5: binary and ternary blends, baited traps; format: in vivo, Spilonota ocellana; details: 100 mg 2-phenylethanol added to 100 mg benzyl nitrile and 3 mL acetic acid
# Protocol: (§2) This trial was conducted in a mixed variety apple orchard in Summerland, British Columbia, Canada from 28 Jul. to 11 Aug. 2014 targeting ESBM and threelined leaf rollers (TLLR). […] White delta traps (Trece Inc) were used.
# TLLR = assay: Example 5: binary and ternary blends, baited traps; format: in vivo, Pandemis limtata; details: 100 mg 2-phenylethanol added to 100 mg benzyl nitrile and 3 mL acetic acid
# Protocol: as §2
# OBLR [2] = assay: Example 1B: individual compounds as attractants, baited traps; format: in vivo, Choristoneura rosaceana; details: tested individually, 10 mg
# Protocol: as §1
# OBLR [3] = details: for numbers of OBLR males and females attracted, each alone, compared with each other: 10 mg benzyl nitrile alone, 0.3 mL acetic acid alone
# Protocol: (§3) The variance of mean captures obtained with each compound or each blend of compounds was stabilized using the √(x+1) transformation of counts and the significance of treatment effects tested using ANOVA.
# (§4) This experiment was conducted from 21 Jun. to 2 Jul. 2015 only for ESBM and OBLR in a mixed varieties apple orchard in Summerland, British Columbia, Canada (49°34′50.02″N, 119°38′16.57″W). The relative attractiveness of the following treatments was investigated: 1) 10 mg benzyl nitrile alone; 2) 0.3 mL acetic acid alone; and 3) 10 mg benzyl nitrile+0.3 mL acetic acid. A trap with a blank lure was used as negative control.
# ESBM [4] = details: for numbers of ESBM males and females attracted, each alone, compared with each other: 10 mg benzyl nitrile alone, 0.3 mL acetic acid alone
# Protocol: as §3, §4
# ESBM [5] = assay: Example 7A: various doses of benzyl nitrile with constant acetic acid, baited traps; format: in vivo, Spilonota ocellana
# Protocol: Large white delta traps (Trece Inc) were used. […] Sticky bases were checked weekly during the experimental period.
# This experiment was conducted between 8 Jul. to 22 Jul. […] This trial targeted ESBM. The relative attractiveness of three binary blends containing constant amount of acetic acid (3 mL) plus varying amounts of benzyl nitrile (1, 10, and 100 mg) was investigated. […] Experimental protocol was similar to Example 4.
# ESBM [6] = assay: Example 1B: individual compounds as attractants, baited traps; format: in vivo, Spilonota ocellana; details: tested individually, 10 mg (acetic acid 0.3 mL); no significant differences among treatments
# Protocol: as §1
# OBLR [7] = tested on: OBLR
# Protocol: as §3
# (§5) This experiment was conducted between the 11th to the 22 Jul. 2014 in a mixed variety organic apple orchard in Summerland, British Columbia, Canada. Large white delta traps (Trece Inc) were used. The loadings of blends were as follow: 1) 100 mg benzyl nitrile and 3 mL acetic acid; 2) 100 mg of 2-phenyethanol and 3 mL acetic acid; 3) 100 mg benzyl alcohol and 3 mL acetic acid. Traps baited with 3 mL of acetic acid was used to quantify the role of acetic acid. A trap with a blank lure was used as negative control. Traps were baited with the compound of formula I and placed in 5 rows, with five replicates of each treatment in a randomized block design. Traps were positioned 1.5 m above the ground in each trap tree, and were spaced 20 m apart in each row. Each treatment was assigned randomly to a trap tree within each row of trees. The polythene sachet and the acetic acid vial were attached to the side of the traps using Velcro tape. Sticky bases were checked weekly during the experimental period.
# (§6) This experiment was conducted between 3 Jul. to 17 Jul. 2014 in a mixed variety organic apple orchard in Summerland, British Columbia, Canada using the same experimental protocol as Example 4. The trial targeted both ESBM and OBLR. The relative attractiveness of the following treatments was investigated: 1) 100 mg benzyl nitrile alone; 2) 3 mL acetic acid alone; and 3) 100 mg of benzyl nitrile and 3 mL acetic acid. A trap with a blank lure was used as negative control.
# ESBM [8] = tested on: ESBM
# Protocol: as §3, §5, §6
# Lepidopterous insects = assay: Summary of field attractant trials (description); format: in vivo; details: other compounds released by infested apple seedlings; results were inconsistent
# Protocol: In the trials described in the Examples, the compounds of formula I were placed inside a permeable polyethylene bag. The acetic acid was applied to a cotton ball inside a 5 ml polyethylene vial containing a 1 mm hole. The bag and vial were placed in the centre of a sticky trap.
# [9] = 10 mg benzyl nitrile added to 0.3 mL acetic acid, P<0.05
# [10] = binary blend containing 1 mg benzyl nitrile, 3 mL acetic acid
# [11] = binary blend with constant 3 mL acetic acid
# [12] = 100 mg benzyl nitrile added to 3 mL acetic acid
smiles,measurement,setting,value
OCc1ccccc1 [benzyl alcohol],attraction of adult LBAM into traps,LBAM,attracted males and females into the traps
OCCc1ccccc1 [2-phenylethanol],change in number of ESBM males and females on addition to binary blend benzyl nitrile/acetic acid,ESBM [1],did not result in significant increase
same,change in number of TLLR males and females on addition to binary blend benzyl nitrile/acetic acid,TLLR,did not result in significant increase
same,attraction of adult LBAM into traps,LBAM,attracted males and females into the traps
same,attraction of OBLR into traps,OBLR [2],attracted males and females
N#CCc1ccccc1 [benzyl nitrile],attraction of adult LBAM into traps,LBAM,attracted males and females into the traps
same,change in number of OBLR males and females caught on addition to acetic acid,OBLR [3]; [9],significant increases
same,"numbers of OBLR males and females attracted, each alone, compared with each other",OBLR [3],attracted similar numbers
same,change in number of ESBM males and females caught on addition to acetic acid,ESBM [4]; [9],significant increases
same,"numbers of ESBM males and females attracted, each alone, compared with each other",ESBM [4],attracted similar numbers
same,ESBM females attracted compared with acetic acid alone,ESBM [5]; [10],significantly more females
same,response of ESBM males compared with acetic acid alone,ESBM [5]; [10],not significant
same,change in number of ESBM males and females caught on increasing dose from 1 mg to 10 mg,ESBM [5]; [11],significant increase
same,change in number of ESBM males and females caught on increasing dose from 10 mg to 100 mg,ESBM [5]; [11],did not result in a significant increase
same,attraction of ESBM into traps,ESBM [6],attracted males and females into the traps
same,fold increase in number of OBLR females caught on addition to acetic acid,OBLR [7]; [12],9 fold
same,fold increase in number of OBLR males caught on addition to acetic acid,OBLR [7]; [12],2 fold
same,"attractiveness to adults OBLR, compound alone",OBLR [7]; 100 mg benzyl nitrile alone,not attractive
same,fold increase in number of ESBM females caught on addition to acetic acid,ESBM [8]; [12],3 fold
same,fold increase in number of ESBM males caught on addition to acetic acid,ESBM [8]; [12],4 fold
same,"attractiveness to adults ESBM, compound alone",ESBM [8]; 100 mg benzyl nitrile alone,not attractive
C=CC(C)(O)CC/C=C(\C)CCC=C(C)C (centres unmarked) [(E)-nerolidol],attractant activity against some insects,Lepidopterous insects,some attractant activity
CC(=O)O [acetic acid],attraction of adult LBAM into traps,LBAM,attracted males and females into the traps
same,"numbers of OBLR males and females attracted, each alone, compared with each other",OBLR [3],attracted similar numbers
same,"numbers of ESBM males and females attracted, each alone, compared with each other",ESBM [4],attracted similar numbers
same,attraction of ESBM into traps,ESBM [6],attracted males and females into the traps
same,"OBLR males and females attracted, compared with traps baited with benzyl nitrile alone",OBLR [7]; 3 mL acetic acid alone,significantly attracted more males and females
same,"ESBM males and females attracted, compared with traps baited with benzyl nitrile alone",ESBM [8]; 3 mL acetic acid alone,significantly attracted more males and females
c1ccc2[nH]ccc2c1 [indole],attractant activity against some insects,Lepidopterous insects,some attractant activity
